# Measurements taken from US20120251495A1, “PTERIN BASED THERAPIES FOR INFLAMMATORY CONDITIONS” (priority 2008, published 2012).
# Legend:
# [1] = test system: MDA-MB-231 human breast tumor xenographs; experiment: Antitumor efficacy in nude mice with MDA-MB-231 xenographs, 1st experiment; assay type: in vivo, athymic nude (nu/nu) mice; conditions: for Day 60 Rel Tum Vol: mean ± SEM
# Method: The aims of the 1st experiment were to determine a dose-response curve for the (1:4 mol:mol) calcium pterin suspension, to compare the antitumor activity of this suspension to pterin alone (pterin control), and to test the effect of CaPterin mega-dosing at 100 mg/kg/day. Antitumor efficacy was evaluated in nude mice with MDA-MB-231 human tumor xenographs by Perry Scientific (San Diego, Calif.). In the 1st experiment, twenty-three athymic nude (nu/nu) female mice, ages 3-4 weeks, were purchased from Harlan Sprague Dawley, Inc. (Indianapolis, Ind.). 5×10^6 MDA-MB-231 cancer cells were injected subcutaneously into the right flank of each mouse. When tumors reached 3-5 mm in size, twenty mice were divided into four treatment/control groups of five mice each. The four treatment groups were: (1:4 mol:mol) calcium pterin (7 mg/kg/day); pterin (21 mg/kg/day); (1:4 mol:mol) calcium pterin (21 mg/kg/day); and sterile water control. Two mice with outlying tumor sizes or non-tumor takes were excluded shortly after treatment began: one from the pterin group and one from the control group. […] Only one outlier persisted >4 days, for 14 days. Also excluded from the metabolic analysis in the 1st experiment was one mouse from each of the four experimental groups mega-dosed by oral gavage with 100 mg/kg/day CaPterin for tip to 31 days to test for toxicity. All the other mice in the 1st experiment persisted ≧60 days without complications.
# The control mice in the 1st experiment were treated with sterile water while the control mice in the 2nd experiment were untreated to evaluate the effect of mouse handling and gavaging upon tumor growth. Daily dosing was for 7 days per week. Animals were restrained but not anesthetized for oral dosing. Tumors were measured twice weekly with calipers and body weights taken twice weekly on the day of tumor measurements. Blood was collected from all animals via cardiac puncture at termination (after 70 to 98 days of treatment) and processed to EDTA plasma for analysis. Tumor size measurements for the control group in the 2nd experiment on days 4 and 7 were missed due to a technical oversight.
# The MDA-MB-231 human breast tumor cell lines were supplied by SRI International (Menlo Park, Calif.) and propagated using standard in vitro cell expansion methods. Briefly, cells were grown in L-15 media from Gibco (Cat. No. 11415-064) supplemented with 2 mM L-Glutamine and 10% Fetal Bovine Serum (FBS). The cells were cultured in an incubator with 5% CO2, 37.5° C., and 80% humidity. Cells were harvested with 0.25% (w/v) Trypsin-0.03% (w/v) EDTA solution. Cells were prepared for injection by standard methods to appropriate concentrations. Animals were temporarily restrained but not anesthetized for the inoculation of the tumor cells. Animals were subcutaneously injected with the tumor cells in a 100-200 μl volume.
# Each animal was individually tracked for tumor growth by external caliper measurements of protruding tumor. Primary tumor sizes were measured using calipers and an approximate tumor volume calculated using the formula 1/2 (a×b^2), where b was the smaller of two perpendicular diameters.
# For each group, the mean and standard error of the mean (SEM) of the ratio V/Vo, Relative Tumor Volume (RTV), were plotted as a function of treatment time after inoculation. V0 was the tumor volume at Day 0, when treatment began.
# [2] = test system: MDA-MB-231 human breast tumor xenographs; experiment: Antitumor efficacy in nude mice with MDA-MB-231 xenographs, 2nd experiment; assay type: in vivo, athymic nude mice
# Method: In the 2nd experiment, twenty-nine athymic nude, also purchased from Harlan Sprague Dawley, Inc. (Indianapolis, Ind.), were each injected subcutaneously with 10×10^6 MDA-MB-231 cancer cells into the right flank. When tumors reached 3-5 mm in size, the mice were divided into five treatment groups of five each and a control group of four mice. […] All the other mice in the 2nd experiment persisted ≧43 days without complications. Experimental groups were treated by oral gavage once daily with the indicated test suspensions or solutions.
# plasma cytokines = experiment: Plasma cytokine levels (multiplex and single ELISA kits), 2nd experiment; assay type: in vivo, athymic nude mice; conditions: for IL-5: limit of detection 3.0; for IFN-γ / IL-12 / IL-4: limit of detection 3.2; for IL-1β: limit of detection 4.1; for IL-6: limit of detection 3.9
# Method: Cytokine levels in EDTA plasma from the mice in the 2nd experiment were measured at the UCSD Core Laboratory (San Diego, Calif.) using a multiplex assay kit for IL-1β, IL-2, IL-4, IL-5, IL-10, IL-12, IFN-γ, TNF-α and single ELISA kits for IL-6 and TGF-β1 by R&D Systems. […] For both the 1st and 2nd experiments, those measured cytokine values falling below the limits of detection were set to the higher assay limit for the purposes of the subsequent statistical analyses, and recorded as n.d. (not detectable) in Tables 1 through 3.
# [3] = Toxicity by body weight changes in nude mice; assay type: in vivo, athymic nude mice
# Method: The aims of the 1st experiment were to determine a dose-response curve for the (1:4 mol:mol) calcium pterin suspension, to compare the antitumor activity of this suspension to pterin alone (pterin control), and to test the effect of CaPterin mega-dosing at 100 mg/kg/day. Antitumor efficacy was evaluated in nude mice with MDA-MB-231 human tumor xenographs by Perry Scientific (San Diego, Calif.). In the 1st experiment, twenty-three athymic nude (nu/nu) female mice, ages 3-4 weeks, were purchased from Harlan Sprague Dawley, Inc. (Indianapolis, Ind.). 5×10^6 MDA-MB-231 cancer cells were injected subcutaneously into the right flank of each mouse. When tumors reached 3-5 mm in size, twenty mice were divided into four treatment/control groups of five mice each. The four treatment groups were: (1:4 mol:mol) calcium pterin (7 mg/kg/day); pterin (21 mg/kg/day); (1:4 mol:mol) calcium pterin (21 mg/kg/day); and sterile water control. […]
# The control mice in the 1st experiment were treated with sterile water while the control mice in the 2nd experiment were untreated to evaluate the effect of mouse handling and gavaging upon tumor growth. […] Tumors were measured twice weekly with calipers and body weights taken twice weekly on the day of tumor measurements. […]
# [4] = test system: MDA-MB-231 human breast xenographs; conditions: Moheno, 2004, cited from earlier work
# HBe antigen = experiment: Sera HBeAg ELISA in HBV transgenic mice; assay type: in vivo; conditions: males
# Method: Experimental design. DCP was administered per os, once daily for 14 days to randomly assigned HBV transgenic mice at 23, 7.3, and 2.3 mg/(kg d). ADV was used as a positive control at 10 mg/(kg d) using the same treatment schedule and vehicle (0.4% CMC). On day 14, mice were euthanized to collect serum and liver samples to perform liver HBV DNA, liver core and serum HBe assays, serum cytokine/chemokine profiles, and IDO metabolite assays.
# Sera HBeAg. Whole blood samples were obtained during necropsy by cardiac puncture, and processed for an HBeAg-specific ELISA (International Immuno Diagnostics, Foster City Calif.) (Money J D, Motter N E, Taro B, Lay M & Fairman J. Efficacy of cationic lipid-DNA complexes (CLDC) on hepatitis B virus in transgenic mice. Antiviral Res 2008; 79:71-79). Using the known PEI (Paul Ehrlich Institute) units for the calibrator, PEI units were formulated for the serial dilutions of the positive serum. A graph was generated, and extrapolation was used to assign a PEI unit value for each sample.
compound,measurement,setting,value
(1:4 mol:mol) calcium pterin [CaPterin],antitumor activity (tumor growth vs control),[1]; 7 mg/kg/day,non-significant
same,Day 60 Rel Tum Vol,[1]; 7 mg/kg/day oral,24.0 ± 9.0
same,antitumor activity (tumor growth vs control),[1]; 21 mg/kg/day,significantly inhibits
same,Day 60 Rel Tum Vol,[1]; 21 mg/kg/day oral,7.9 ± 1.3
same,T/C ratio (mean treatment tumor volume to mean control tumor volume),"[1]; 21 mg/kg/day, after 60 days",41%
same,"Spearman rank order correlation rs, Day 60 Relative Tumor Volume versus dose","[1]; n=14, p=0.005",0.70
same,T/C,"[2]; 21 mg/kg/day, after 43 days",37%
same,IL-5,"plasma cytokines; 2nd experiment, 21 mg/kg/d",8.2 ± 1.4 pg/mL
same,IFN-γ,"plasma cytokines; 2nd experiment, 21 mg/kg/d",6.2 ± 2.4 pg/mL
same,IL-12,"plasma cytokines; 2nd experiment, 21 mg/kg/d",721.6 ± 19.1 pg/mL
same,IL-1β,"plasma cytokines; 2nd experiment, 21 mg/kg/d",5.0 ± .7 pg/mL
same,IL-6,"plasma cytokines; 2nd experiment, 21 mg/kg/d, plasma at sacrifice",30.3 ± 10.2 pg/mL
same,increases in plasma IL-12 (FIG. 10),plasma cytokines; at the dosages tested,"lower, non-significant increases"
same,toxicity (appreciable weight loss),[3]; mega-dosed 100 mg/kg/day oral gavage for up to 31 days,no observed toxicity
same,greatest weight loss (body weight),"[3]; mega-dosed group 100 mg/kg/day, one mouse, after 32 days",8.1%
same,T/C ratio,[4]; 7 mg/kg/day,41%
same,antitumor efficacy against MDA-MB-231 human breast xenographs,[4]; nude mice,significant antitumor efficacy
"Nc1nc([O-])c2nccnc2n1.Nc1nc([O-])c2nccnc2n1.[Ca+2] [DCP, dipterinyl calcium pentahydrate]",MDA-MB-231 xenograph growth inhibition,"[2]; (1:2) 25, DCP 23 and 69, calcium chloride dihydrate 4.2 mg/kg/day",significantly inhibit
same,IL-5,"plasma cytokines; 2nd experiment, 23 mg/kg/d",20.3 ± 10.2 pg/mL
same,IFN-γ,"plasma cytokines; 2nd experiment, 23 mg/kg/d",15.2 ± 4.9 pg/mL
same,IL-4,"plasma cytokines; 2nd experiment, 23 mg/kg/d",5.7 ± 1.7 pg/mL
same,IL-12,"plasma cytokines; 2nd experiment, 23 mg/kg/d",1141.7 ± 327.1 pg/mL
same,IL-6,"plasma cytokines; 2nd experiment, 23 mg/kg/d",49.6 ± 18.5 pg/mL
same,IL-1β,"plasma cytokines; 2nd experiment, 23 mg/kg/d",6.2 ± .8 pg/mL
same,IL-2,"plasma cytokines; 2nd experiment, 23 mg/kg/d, limit of detection 12.6",12.7 ± .11 pg/mL
same,IL-10,"plasma cytokines; 2nd experiment, 23 mg/kg/d, limit of detection 24.6",37.0 ± 12.4 pg/mL
same,IL-5,"plasma cytokines; 2nd experiment, 69 mg/kg/d",24.9 ± 17.0 pg/mL
same,IFN-γ,"plasma cytokines; 2nd experiment, 69 mg/kg/d",29.9 ± 18.0 pg/mL
same,IL-4,"plasma cytokines; 2nd experiment, 69 mg/kg/d",4.0 ± .6 pg/mL
same,IL-12,"plasma cytokines; 2nd experiment, 69 mg/kg/d",1050.52 ± 238.7 pg/mL
same,IL-6,"plasma cytokines; 2nd experiment, 69 mg/kg/d",37.0 ± 11.3 pg/mL
same,IL-1β,"plasma cytokines; 2nd experiment, 69 mg/kg/d",5.3 ± .7 pg/mL
same,TGF-β1,"plasma cytokines; 2nd experiment, 69 mg/kg/d, limit of detection 31.2",49.5 ± 18.3 pg/mL
same,HBe antigen (ELISA) versus controls,HBe antigen; 2.3 mg/(kg day),significant treatment increases
same,HBe antigen (ELISA) versus controls,HBe antigen; 7.3 mg/(kg day),significant treatment increases
